Assay results: PubChem BioAssay AID1963448 (Molecular Pharmacology Branch, DTP, NCI, 2024)

Tested on: 616215-338-R-J1-PDC complex spheroid growth, % test/control
Assay: Anticancer human tumor 616215-338-R-J1-PDC patient-derived colon adenocarcinoma cell line growth inhibition [Asc]
Conditions: for IC50: curve of first compound; for viability, T/C: stronger effect = lower value; active = viability on the fitted dose curve at most 10% of control; inactive = the rest
Method in brief: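 Concentration series start at each agent's clinical Cmax, or at 10 microM when none is established, and drop in half-log steps; agents are applied alone or together to complex spheroids built with HUVEC and hMSC.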

[1] = second compound 0.1 µM, first compound 0.0316 µM
[2] = second compound 0.1 µM, first compound 0.1 µM
[3] = second compound 0.1 µM, first compound 0.316 µM
[4] = second compound 0.1 µM, first compound 1 µM
[5] = second compound 0.1 µM, first compound 3.16 µM
[6] = second compound 0.1 µM, first compound 10 µM
[7] = second compound 0.316 µM, first compound 0.0316 µM
[8] = second compound 0.316 µM, first compound 0.1 µM
[9] = second compound 0.316 µM, first compound 0.316 µM
[10] = second compound 0.316 µM, first compound 1 µM
[11] = second compound 0.316 µM, first compound 3.16 µM
[12] = second compound 0.316 µM, first compound 10 µM
[13] = second compound 1 µM, first compound 0.0316 µM
[14] = second compound 1 µM, first compound 0.1 µM
[15] = second compound 1 µM, first compound 0.316 µM
[16] = second compound 1 µM, first compound 1 µM
[17] = second compound 1 µM, first compound 3.16 µM
[18] = second compound 1 µM, first compound 10 µM
[19] = second compound 3.16 µM, first compound 0.0316 µM
[20] = second compound 3.16 µM, first compound 0.1 µM
[21] = second compound 3.16 µM, first compound 0.316 µM
[22] = second compound 3.16 µM, first compound 1 µM
[23] = second compound 3.16 µM, first compound 3.16 µM
[24] = second compound 3.16 µM, first compound 10 µM
[25] = second compound 10 µM, first compound 0.0316 µM
[26] = second compound 10 µM, first compound 0.1 µM
[27] = second compound 10 µM, first compound 0.316 µM
[28] = second compound 10 µM, first compound 1 µM
[29] = second compound 10 µM, first compound 3.16 µM
[30] = second compound 10 µM, first compound 10 µM
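Note: spheroids exposed to agents for seven days before readout.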
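Throughout, for viability, T/C: 100% = DMSO vehicle control viability.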

C=C(F)C(=O)N1CCN(c2nc(OCC3CCCN3C)nc3c2CCN(c2cccc4cccc(Cl)c24)C3)CC1CC#N (stereo not given) + Cc1c(S(C)(=O)=O)c(-c2cc(F)cc(N3CCN(c4ccc(NS(=O)(=O)c5ccc(NC(CCN6CCC(C(=O)OCCCP(=O)(O)O)CC6)CSc6ccccc6)c(S(=O)(=O)C(F)(F)F)c5)cc4)CC3)c2)c(-c2ccc(Cl)cc2)n1C(C)C
active: viability, T/C [6] 0.45% | viability, T/C [12] 0.42% | viability, T/C [18] 0.39% | viability, T/C [24] 0.3% | viability, T/C [29] 1.56% | viability, T/C [30] 0.39%
inactive: viability, T/C [1] 93.2% | viability, T/C [2] 91.6% | viability, T/C [3] 87.8% | viability, T/C [4] 100% | viability, T/C [5] 96.1% | viability, T/C [7] 89.1% | viability, T/C [8] 89.3% | viability, T/C [9] 85.6% | viability, T/C [10] 88.5% | viability, T/C [11] 80.4% | viability, T/C [13] 65% | viability, T/C [14] 70.8% | viability, T/C [15] 67.9% | viability, T/C [16] 62.8% | viability, T/C [17] 49.4% | viability, T/C [19] 37.2% | viability, T/C [20] 36.6% | viability, T/C [21] 35.4% | viability, T/C [22] 32% | viability, T/C [23] 2.23% | viability, T/C [25] 26.4% | viability, T/C [26] 23.3% | viability, T/C [27] 20.3% | viability, T/C [28] 18.8%
4900 nM: IC50 (second compound 0.316 µM)
2950 nM: IC50 (second compound 1 µM)
< 31.6 nM: IC50 (second compound 3.16 µM) | IC50 (second compound 10 µM)
5430 nM: IC50 (second compound 0.1 µM)

C=CC(=O)N1CCN(c2nc(=O)n(-c3c(C)ccnc3C(C)C)c3nc(-c4c(O)cccc4F)c(F)cc23)C(C)C1 (stereo not given) + Cc1c(S(C)(=O)=O)c(-c2cc(F)cc(N3CCN(c4ccc(NS(=O)(=O)c5ccc(NC(CCN6CCC(C(=O)OCCCP(=O)(O)O)CC6)CSc6ccccc6)c(S(=O)(=O)C(F)(F)F)c5)cc4)CC3)c2)c(-c2ccc(Cl)cc2)n1C(C)C
2350 nM: IC50 (second compound 1 µM)
inactive: viability, T/C [1] 87.5% | viability, T/C [2] 89.8% | viability, T/C [3] 90.4% | viability, T/C [4] 92.9% | viability, T/C [5] 87.5% | viability, T/C [6] 88.3% | viability, T/C [7] 87.7% | viability, T/C [8] 86.9% | viability, T/C [9] 84.5% | viability, T/C [10] 92.1% | viability, T/C [11] 83.4% | viability, T/C [12] 64.4% | viability, T/C [13] 67.6% | viability, T/C [14] 74.5% | viability, T/C [15] 68% | viability, T/C [16] 61.6% | viability, T/C [17] 45.9% | viability, T/C [18] 42% | viability, T/C [19] 36% | viability, T/C [20] 40.6% | viability, T/C [21] 37.9% | viability, T/C [22] 30.2% | viability, T/C [23] 22.3% | viability, T/C [24] 17.7% | viability, T/C [25] 24.9% | viability, T/C [26] 26.2% | viability, T/C [27] 21.9% | viability, T/C [28] 20% | viability, T/C [29] 17.5% | viability, T/C [30] 5.58%
< 31.6 nM: IC50 (second compound 3.16 µM) | IC50 (second compound 10 µM)
> 10000 nM: IC50 (second compound 0.1 µM) | IC50 (second compound 0.316 µM)

CCN1C(C(=O)NC23CCC(C(=O)O)(CC2)CC3)C(c2cccc(Cl)c2F)C2(C(=O)Nc3cc(Cl)ccc32)C12CCCCC2 (stereo not given) + Cc1c(S(C)(=O)=O)c(-c2cc(F)cc(N3CCN(c4ccc(NS(=O)(=O)c5ccc(NC(CCN6CCC(C(=O)OCCCP(=O)(O)O)CC6)CSc6ccccc6)c(S(=O)(=O)C(F)(F)F)c5)cc4)CC3)c2)c(-c2ccc(Cl)cc2)n1C(C)C
123 nM: IC50 (second compound 0.316 µM)
11 nM: IC50 (second compound 1 µM)
490 nM: IC50 (second compound 0.1 µM)
< 9.49 nM: IC50 (second compound 3.16 µM) | IC50 (second compound 10 µM)
active: viability, T/C (second compound 0.1 µM, first compound 3 µM) 2.3% | viability, T/C (second compound 0.316 µM, first compound 0.949 µM) 3.82% | viability, T/C (second compound 0.316 µM, first compound 3 µM) 0.48% | viability, T/C (second compound 1 µM, first compound 0.3 µM) 7.2% | viability, T/C (second compound 1 µM, first compound 0.949 µM) 2.56% | viability, T/C (second compound 1 µM, first compound 3 µM) 0.18% | viability, T/C (second compound 3.16 µM, first compound 0.03 µM) 5.05% | viability, T/C (second compound 3.16 µM, first compound 0.0949 µM) 1.2% | viability, T/C (second compound 3.16 µM, first compound 0.3 µM) 0.74% | viability, T/C (second compound 3.16 µM, first compound 0.949 µM) 0.06% | viability, T/C (second compound 3.16 µM, first compound 3 µM) 0.2% | viability, T/C (second compound 10 µM, first compound 0.00949 µM) 4.94% | viability, T/C (second compound 10 µM, first compound 0.03 µM) 1.17% | viability, T/C (second compound 10 µM, first compound 0.0949 µM) 0.43% | viability, T/C (second compound 10 µM, first compound 0.3 µM) 0.5% | viability, T/C (second compound 10 µM, first compound 0.949 µM) 1.65% | viability, T/C (second compound 10 µM, first compound 3 µM) 1.41%
inactive: viability, T/C (second compound 0.1 µM, first compound 0.00949 µM) 92.5% | viability, T/C (second compound 0.1 µM, first compound 0.03 µM) 101% | viability, T/C (second compound 0.1 µM, first compound 0.0949 µM) 77.3% | viability, T/C (second compound 0.1 µM, first compound 0.3 µM) 50.7% | viability, T/C (second compound 0.1 µM, first compound 0.949 µM) 43.3% | viability, T/C (second compound 0.316 µM, first compound 0.00949 µM) 89.4% | viability, T/C (second compound 0.316 µM, first compound 0.03 µM) 81.1% | viability, T/C (second compound 0.316 µM, first compound 0.0949 µM) 51.6% | viability, T/C (second compound 0.316 µM, first compound 0.3 µM) 34.3% | viability, T/C (second compound 1 µM, first compound 0.00949 µM) 53.2% | viability, T/C (second compound 1 µM, first compound 0.03 µM) 29.8% | viability, T/C (second compound 1 µM, first compound 0.0949 µM) 17.1% | viability, T/C (second compound 3.16 µM, first compound 0.00949 µM) 20.3%

COc1c(OCCCN2CCOCC2)ccc2c3n(c(=NC(=O)c4cnc(N)nc4)nc12)CCN3 + Cc1c(S(C)(=O)=O)c(-c2cc(F)cc(N3CCN(c4ccc(NS(=O)(=O)c5ccc(NC(CCN6CCC(C(=O)OCCCP(=O)(O)O)CC6)CSc6ccccc6)c(S(=O)(=O)C(F)(F)F)c5)cc4)CC3)c2)c(-c2ccc(Cl)cc2)n1C(C)C
active: viability, T/C [4] 7.35% | viability, T/C [10] 2.69% | viability, T/C [15] 7.07% | viability, T/C [16] 0.53% | viability, T/C [21] 1.45% | viability, T/C [22] 0.19% | viability, T/C [27] 0.24% | viability, T/C [28] 0.29%
126 nM: IC50 (second compound 1 µM)
231 nM: IC50 (second compound 0.1 µM)
36.4 nM: IC50 (second compound 3.16 µM)
< 3.16 nM: IC50 (second compound 10 µM)
inactive: viability, T/C (second compound 0.1 µM, first compound 0.00316 µM) 93.1% | viability, T/C (second compound 0.1 µM, first compound 0.01 µM) 100% | viability, T/C [1] 100% | viability, T/C [2] 88.2% | viability, T/C [3] 35.5% | viability, T/C (second compound 0.316 µM, first compound 0.00316 µM) 90.5% | viability, T/C (second compound 0.316 µM, first compound 0.01 µM) 96.7% | viability, T/C [7] 105% | viability, T/C [8] 81.1% | viability, T/C [9] 22.2% | viability, T/C (second compound 1 µM, first compound 0.00316 µM) 71.7% | viability, T/C (second compound 1 µM, first compound 0.01 µM) 78.3% | viability, T/C [13] 78.6% | viability, T/C [14] 60.6% | viability, T/C (second compound 3.16 µM, first compound 0.00316 µM) 45.4% | viability, T/C (second compound 3.16 µM, first compound 0.01 µM) 53.2% | viability, T/C [19] 63% | viability, T/C [20] 22.1% | viability, T/C (second compound 10 µM, first compound 0.00316 µM) 28.8% | viability, T/C (second compound 10 µM, first compound 0.01 µM) 30.3% | viability, T/C [25] 35.4% | viability, T/C [26] 4.88%
185 nM: IC50 (second compound 0.316 µM)
